This note sets out measurements from ChEMBL document CHEMBL3603747, “Discovery, design, and synthesis of indole-based EZH2 inhibitors” (Bioorg Med Chem Lett, 2015).

The structures appear in SMILES notation.

What all share (type): ADME, organism-based
Data set [1] in a line: Cmax in CB17 SCID mouse at 200 mg/kg, sc by LC-MS method. Set-up: dose 200 mg/kg, route subcutaneous. The following applies: in vivo.
Data set [2] in a line: Volume of distribution at steady state in CB17 SCID mouse at 1 mg/kg, iv by LC-MS method. Particulars: in vivo, read-out: Vdss.
Data set [3] is described as follows: AUC in CB17 SCID mouse at 1 mg/kg, iv by LC-MS method. The following applies: in vivo.
The nature of data set [4]: AUC in CB17 SCID mouse at 200 mg/kg, sc by LC-MS method. Particulars: in vivo.

In data set [1], `CCS(=O)(=O)N1CCC([C@@H](C)n2c(C)c(C(=O)NCc3c(OC)cc(C)[nH]c3=O)c3ccccc32)CC1` had a Cmax of 9150 ng/mL. The Vd in data set [2] came to 0.795 L/kg. Moreover, the AUC was 362 ng·h/mL in data set [3] and 51000 ng·h/mL in data set [4].

For orientation: Cmax means the maximum level reached in the sampled fluid or tissue. As a reminder, the AUC is the area under the concentration-time curve, a measure of exposure. A lower AUC goes with low exposure.
